Source: the NIST ThermoML archive (doi:10.1016/j.fluid.2010.03.012)

Assay: osmotic coefficient (dimensionless); mn = molality of the nth substance listed, in mol/kg
Settings: 101 kPa, Liquid, isopiestic method

C1CN2CN3CCN(CN1C3)C2 [1,3,6,8-tetraazatricyclo[4.4.1.1(3,8)]dodecane] + O
Settings	osmotic coefficient
288.15 K, m1 = 0.2149	0.9605
288.15 K, m1 = 0.2154	0.9583
288.15 K, m1 = 0.3036	0.9533
288.15 K, m1 = 0.3041	0.9518
288.15 K, m1 = 0.5049	0.9571
288.15 K, m1 = 0.5066	0.9563
288.15 K, m1 = 0.603	0.9824
288.15 K, m1 = 0.604	0.9816
288.15 K, m1 = 0.7629	1.016
288.15 K, m1 = 0.7638	1.015
288.15 K, m1 = 1.011	1.1
293.15 K, m1 = 0.2023	0.991
293.15 K, m1 = 0.2031	0.9887
293.15 K, m1 = 0.3454	0.9917
293.15 K, m1 = 0.3458	0.9907
293.15 K, m1 = 0.5003	0.993
293.15 K, m1 = 0.5009	0.9919
293.15 K, m1 = 0.7613	1.035
293.15 K, m1 = 0.7629	1.033
293.15 K, m1 = 0.9099	1.056
293.15 K, m1 = 0.9108	1.055
293.15 K, m1 = 1.068	1.119
293.15 K, m1 = 1.069	1.118
298.15 K, m1 = 0.2201	1.014
298.15 K, m1 = 0.2205	1.012
298.15 K, m1 = 0.3086	1.017
298.15 K, m1 = 0.3087	1.016
298.15 K, m1 = 0.5052	1.028
298.15 K, m1 = 0.5055	1.027
298.15 K, m1 = 0.562	1.032
298.15 K, m1 = 0.5624	1.032
298.15 K, m1 = 0.7125	1.045
298.15 K, m1 = 0.9849	1.075
298.15 K, m1 = 0.9867	1.073
303.15 K, m1 = 0.2074	0.972
303.15 K, m1 = 0.2079	0.9707
303.15 K, m1 = 0.3266	0.9871
303.15 K, m1 = 0.3271	0.9863
303.15 K, m1 = 0.5022	1.015
303.15 K, m1 = 0.5029	1.014
303.15 K, m1 = 0.6864	1.033
303.15 K, m1 = 0.6868	1.034
303.15 K, m1 = 0.7946	1.057
303.15 K, m1 = 0.7955	1.057
303.15 K, m1 = 1.028	1.103
303.15 K, m1 = 1.029	1.102
